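Growth conditions: 96-well plates. Treatment: test compound, 48 hours, 5 concentrations. Analysis: linear interpolation between bracketing concentrations; unreached endpoints set to highest concentration. Here, GI50 denotes the concentration required for 50% inhibition of growth. Definition used: TGI = concentration required for complete inhibition of growth.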 Where a SMILES comes first, the peptide text is derived from it.
What was measured:
Assay in all cases: NCI anticancer screen, dose series, 48 h
[1] = tested on: 786-0 renal
[2] = tested on: A498 renal
[3] = tested on: A549 NSCLC
[4] = tested on: ACHN renal
[5] = tested on: CAKI-1 renal
[6] = tested on: CCRF-CEM leukemia
[7] = tested on: COLO 205 colon
[8] = tested on: DLD-1 colon
[9] = tested on: DMS 114 small cell lung
[10] = tested on: DMS 273 small cell lung
[11] = tested on: DU-145 prostate
[12] = tested on: EKVX NSCLC
[13] = tested on: HCC-2998 colon
[14] = tested on: HCT-116 colon
[15] = tested on: HCT-15 colon
[16] = tested on: HL-60(TB) leukemia
[17] = tested on: HOP-18 NSCLC
[18] = tested on: HOP-62 NSCLC
[19] = tested on: HS 578T breast
[20] = tested on: HT29 colon
[21] = tested on: IGROV1 ovarian
[22] = tested on: K-562 leukemia
[23] = tested on: KM12 colon
[24] = tested on: KM20L2 colon
[25] = tested on: LOX IMVI melanoma
[26] = tested on: LXFL 529 NSCLC
[27] = tested on: M14 melanoma
[28] = tested on: M19-MEL melanoma
[29] = tested on: MALME-3M melanoma
[30] = tested on: MCF7 breast
[31] = tested on: MDA-MB-231 breast
[32] = tested on: MDA-MB-435
[33] = tested on: MDA-N
[34] = tested on: MOLT-4 leukemia
[35] = tested on: NCI-H226 lung
[36] = tested on: NCI-H23 lung
[37] = tested on: NCI-H460 lung
[38] = tested on: NCI-H522 lung
[39] = tested on: NCI/ADR-RES ovarian
[40] = tested on: OVCAR-3 ovarian
[41] = tested on: OVCAR-4 ovarian
[42] = tested on: OVCAR-5 ovarian
[43] = tested on: OVCAR-8 ovarian
[44] = tested on: PC-3 prostate
[45] = tested on: RPMI-8226 leukemia
[46] = tested on: RXF 393 renal
[47] = tested on: RXF-631 renal
[48] = tested on: SF-268 CNS
[49] = tested on: SF-295 CNS
[50] = tested on: SF-539 CNS
[51] = tested on: SK-MEL-2 melanoma
[52] = tested on: SK-MEL-28 melanoma
[53] = tested on: SK-MEL-5 melanoma
[54] = tested on: SK-OV-3 ovarian
[55] = tested on: SN12C renal
[56] = tested on: SNB-19 CNS
[57] = tested on: SNB-75 CNS
[58] = tested on: SNB-78 CNS
[59] = tested on: SR leukemia
[60] = tested on: SW-620 colon
[61] = tested on: T-47D breast
[62] = tested on: U251 CNS
[63] = tested on: UACC-257 melanoma
[64] = tested on: UACC-62 melanoma
[65] = tested on: UO-31 renal
[66] = tested on: XF 498 CNS

`CC(C)CC(NC(=O)C(CC(C)C)NC(=O)C(Cc1cnc[nH]1)NC(=O)C(C)NC(=O)C(NC(=O)C(C)NC(=O)C(Cc1c[nH]c2ccccc12)NC(=O)C(CCC(=O)O)NC(=O)C(N)Cc1ccccc1)C(C)C)C(N)=O` (configuration not stated) (H-FEWAVAHLL-NH2; configuration not given here) gave a GI50 [1] of over 100 µM, a TGI [1] of over 100 µM and a GI50 [2] of over 100 µM. The TGI [2] was over 100 µM, the GI50 [3] was over 100 µM and the TGI [3] was over 100 µM. The TGI [4] was over 100 µM, the GI50 [5] was over 100 µM and the TGI [5] was over 100 µM. For the same molecule, the GI50 [6] was over 100 µM, the TGI [6] was over 100 µM and the GI50 [7] was over 100 µM. For the same molecule, the TGI [7] was over 100 µM, the TGI [8] was over 100 µM and the TGI [9] was over 100 µM. For the same molecule, the TGI [10] was over 100 µM, the TGI [11] was over 12.5 µM and the GI50 [12] was over 100 µM. For the same molecule, the TGI [12] was over 100 µM, the GI50 [13] was over 100 µM and the TGI [13] was over 100 µM. For the same molecule, the GI50 [14] was over 100 µM, the TGI [14] was over 100 µM and the GI50 [15] was over 100 µM. For the same molecule, the TGI [15] was over 100 µM, the GI50 [16] was over 100 µM and the TGI [16] was over 100 µM. For the same molecule, the TGI [17] was over 100 µM, the GI50 [18] was over 100 µM and the TGI [18] was over 100 µM. For the same molecule, the TGI [19] was over 12.5 µM, the GI50 [20] was over 100 µM and the TGI [20] was over 100 µM. It also gave a GI50 [21] of over 100 µM, a TGI [21] of over 100 µM and a GI50 [22] of over 100 µM. The TGI [22] was over 100 µM, the GI50 [23] was over 100 µM and the TGI [23] was over 100 µM. The TGI [24] was over 100 µM, the TGI [25] was over 12.5 µM and the TGI [26] was over 100 µM. The GI50 [27] was over 100 µM, the TGI [27] was over 100 µM and the TGI [28] was over 100 µM. It also gave a TGI [29] of over 12.5 µM, a TGI [30] of over 12.5 µM and a TGI [31] of over 12.5 µM. The TGI [32] was over 12.5 µM, the TGI [33] was over 12.5 µM and the GI50 [34] was over 100 µM. For the same molecule, the TGI [34] was over 100 µM, the TGI [35] was over 12.5 µM and the GI50 [36] was over 100 µM. It also gave a TGI [36] of over 100 µM, a GI50 [37] of over 100 µM and a TGI [37] of over 100 µM. It also gave a TGI [38] of over 12.5 µM, a TGI [39] of over 12.5 µM and a GI50 [40] of over 100 µM. It also gave a TGI [40] of over 100 µM, a GI50 [41] of over 100 µM and a TGI [41] of over 100 µM. For the same molecule, the TGI [42] was over 12.5 µM, the GI50 [43] was over 100 µM and the TGI [43] was over 100 µM. The TGI [44] was over 12.5 µM, the GI50 [45] was over 100 µM and the TGI [45] was over 100 µM. It also gave a GI50 [46] of over 100 µM, a TGI [46] of over 100 µM and a TGI [47] of over 100 µM. The TGI [48] was over 12.5 µM, the GI50 [49] was over 100 µM and the TGI [49] was over 100 µM. For the same molecule, the GI50 [50] was over 100 µM, the TGI [50] was over 100 µM and the GI50 [51] was over 100 µM. It also gave a TGI [51] of over 100 µM, a TGI [52] of over 100 µM and a TGI [53] of over 12.5 µM. The GI50 [54] was over 100 µM, the TGI [54] was over 100 µM and the GI50 [55] was over 100 µM. For the same molecule, the TGI [55] was over 100 µM, the TGI [56] was over 100 µM and the TGI [57] was over 100 µM. It also gave a TGI [58] of over 100 µM, a GI50 [59] of over 100 µM and a TGI [59] of over 100 µM. The GI50 [60] was over 100 µM, the TGI [60] was over 100 µM and the TGI [61] was over 12.5 µM. It also gave a GI50 [62] of over 100 µM, a TGI [62] of over 100 µM and a GI50 [63] of over 100 µM. The TGI [63] was over 100 µM, the GI50 [64] was over 100 µM and the TGI [64] was over 100 µM. For the same molecule, the GI50 [65] was 70.9 µM, the TGI [65] was over 100 µM and the TGI [66] was over 100 µM.

— PubChem BioAssay (NCI)
